# Data taken from US7868185B2, “Shp-2 inhibitors and pharmaceutical compositions comprising them” (Max-Delbruck-Centrum fur Molekulare Medizin, priority 2005, dated 2011).
# How the values were obtained:
# [1] = molecular target: Met (Homo sapiens, UniProt P08581); settings: in vitro; cited from earlier work
# [2] = tested on: HGF induced scattering; settings: in vitro; cited from earlier work
# [3] = earlier experiments; cited from earlier work
# [4] = tested on: phosphorylation of MAP kinases Erk1 and Erk2; experiment: HGF/SF phosphorylation assay (MDCK); assay type: cell-based, canine; settings: MDCK cells, HGF/SF stimulation, 5, 10, 20 μM, dose dependant
# Experimental: MDCK cells are seeded at 0.15×10E6 cells/ml (1 ml/well) in a 12 well microtiter plate in DMEM/10% FBS and incubated over night at 37° C./5% CO2. Medium is exchanged against DMEM/1% FBS plus 5, 10 or 20 μM (final concentration) compound, and the cells are incubated for 16 h at 37° C./5% CO2. Medium is exchanged against DMEM (without serum) plus 5, 10 or 20 μM compound (final DMSO concentration less than 1%), and the cells are incubated for 2 h at 37° C./5% CO2. Medium is exchanged against DMEM (without serum) plus 5, 10 or 20 μM compound (final DMSO concentration less than 1%) plus 10 ng/ml HGF/SF, and the cells are incubated for 6 h at 37° C./5% CO2. […] Proteins on the blot are analyzed by antibodies against p42/p44 MAP kinase (Erk1/Erk2) (Cell Signaling Technology, Inc., Beverly, USA) and phospho-Erk1/Erk2 (Cell Signaling Technology, Inc., Beverly, USA).
# The binding of the antibodies to the MAP kinases on the nitrocellulose was detected by incubation with secondary goat-anti-rabbit-antibodies coupled to horse radish peroxidase (Jackson ImmunoResearch Laboratories, Soham, UK) and subsequent reaction with ECL reagents (Western Lightning™, PerkinElmer Life Sciences, Inc. Boston, USA) and X-ray film exposure (X-OMAT™, Kodak GmbH, Stuttgart, Germany). […]
# [5] = tested on: phosphorylation of MAP kinases Erk1 and Erk2; experiment: HGF/SF phosphorylation assay (NCI-H661); assay type: cell-based, human; settings: NCI-H661 cells (N58S in SHP2/PTPN11), HGF/SF stimulation, dose dependant
# Experimental: Typically, human tumor cells (e.g. NCI-H661) were seeded at 0.25×10E6 cells/ml (1 ml/well) in a 6 well microtiter plate in RPMI/10% FBS and incubated over night at 37° C./5% CO2. Medium is exchanged against RPMI/1% FBS plus 5, 10 or 20 μM (final concentration) compound, and the cells were incubated for 20 h at 37° C./5% CO2. Medium was exchanged against RPMI (without serum) plus 5, 10 or 20 μM compound (final DMSO concentration less than 1%), and the cells were incubated for 4 h at 37° C./5% CO2. Medium was exchanged against DMEM (without serum) plus 5, 10 or 20 μM compound (final DMSO concentration less than 1%) plus 10 ng/ml HGF/SF, and the cells were incubated for 4 h at 37° C./5% CO2. […] Proteins on the blot were analyzed by antibodies against p42/p44 MAP kinase (Erk1/Erk2) (Cell Signaling Technology, Inc., Beverly, USA) and phospho-Erk1/Erk2 (Cell Signaling, Technology, Inc., Beverly, USA). The binding of the antibodies to the MAP kinases on the nitrocellulose was detected by incubation with secondary goat-anti-rabbit-antibodies coupled to horse radish peroxidase (Jackson ImmunoResearch Laboratories, Soham, UK) and subsequent reaction with ECL reagents (Western Lightning™, PerkinElmer Life Sciences, Inc. Boston, USA) and X-ray film exposure (X-OMAT™, Kodak GmbH, Stuttgart, Germany).
# Sequence of Met (P08581 25-1390): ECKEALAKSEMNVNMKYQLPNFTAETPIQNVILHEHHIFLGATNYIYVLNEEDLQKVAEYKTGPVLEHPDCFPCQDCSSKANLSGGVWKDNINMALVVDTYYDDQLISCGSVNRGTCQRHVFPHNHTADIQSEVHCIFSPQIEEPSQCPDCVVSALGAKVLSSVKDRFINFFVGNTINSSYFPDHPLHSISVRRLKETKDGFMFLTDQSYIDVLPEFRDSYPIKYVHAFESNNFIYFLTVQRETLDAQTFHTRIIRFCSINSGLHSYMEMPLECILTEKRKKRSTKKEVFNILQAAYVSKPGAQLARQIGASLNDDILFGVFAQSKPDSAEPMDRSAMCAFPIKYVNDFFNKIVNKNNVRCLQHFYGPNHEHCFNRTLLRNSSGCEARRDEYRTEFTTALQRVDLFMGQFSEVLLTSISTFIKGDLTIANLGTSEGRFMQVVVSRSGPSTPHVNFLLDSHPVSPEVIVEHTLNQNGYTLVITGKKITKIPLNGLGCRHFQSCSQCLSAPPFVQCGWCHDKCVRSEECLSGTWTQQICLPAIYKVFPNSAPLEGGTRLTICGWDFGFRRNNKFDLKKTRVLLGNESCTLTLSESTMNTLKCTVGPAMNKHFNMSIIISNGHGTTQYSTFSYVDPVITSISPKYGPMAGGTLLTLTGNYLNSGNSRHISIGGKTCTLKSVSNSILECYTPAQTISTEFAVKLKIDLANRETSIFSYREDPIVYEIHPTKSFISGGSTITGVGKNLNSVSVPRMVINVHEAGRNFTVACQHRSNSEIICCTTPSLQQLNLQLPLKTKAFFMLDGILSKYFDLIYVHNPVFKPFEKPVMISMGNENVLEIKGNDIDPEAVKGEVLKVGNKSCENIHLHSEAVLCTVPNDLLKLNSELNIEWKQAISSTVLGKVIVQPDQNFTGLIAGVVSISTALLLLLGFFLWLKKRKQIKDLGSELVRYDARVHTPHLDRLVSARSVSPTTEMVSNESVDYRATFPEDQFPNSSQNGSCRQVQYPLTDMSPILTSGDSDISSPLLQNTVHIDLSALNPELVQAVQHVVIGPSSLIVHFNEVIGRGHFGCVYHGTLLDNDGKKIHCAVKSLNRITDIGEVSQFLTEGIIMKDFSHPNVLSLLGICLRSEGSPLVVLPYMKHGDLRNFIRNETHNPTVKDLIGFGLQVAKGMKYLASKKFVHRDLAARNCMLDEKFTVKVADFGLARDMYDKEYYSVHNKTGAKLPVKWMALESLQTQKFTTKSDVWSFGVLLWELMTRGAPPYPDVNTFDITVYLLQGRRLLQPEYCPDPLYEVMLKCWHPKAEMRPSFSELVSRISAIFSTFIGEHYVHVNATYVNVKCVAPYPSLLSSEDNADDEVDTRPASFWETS
smiles,measurement,setting,value
COC(=O)[C@@]1(O)C[C@H]2O[C@]1(C)n1c3ccccc3c3c4c(c5c6ccccc6n2c5c31)C(=O)NC4 [Compound K252a],Met autophosphorylation,[1],inhibits
same,HGF induced scattering,[2],inhibits
same,antitumor activity in vivo,[3],no antitumor activity
"O=C1/C(=N\Nc2ccc(S(=O)(=O)O)cc2)C(c2ccc([N+](=O)[O-])cc2)=NN1c1ccccc1 [II-1, 4-(2-(3-(4-nitrophenyl)-5-oxo-1-phenyl-1,5-dihydro-4H-pyrazol-4-ylidene)hydrazino)-benzenesulfonic acid]",sustained MAP kinase phosphorylation (P-Erk1/Erk1),[4],inhibited
same,sustained MAP kinase phosphorylation,[5],inhibited
